Results from patent US6831083B2, “Pyrazoline derivative or tetrahydropyridazine derivative and medicinal use thereof” (Mitsui Chemicals, Inc., priority 2000, dated 2004).
Marks after values point to notes of the source that are not given here.

Experiments:
rat GLT-1 = target: T1, rat GLT-1 (Rattus norvegicus, UniProt P31596); assay: Activating action for glia type glutamic acid transporter (GLT-1): [3H]-glutamate intake in COS-7 cells; assay type: cell-based; settings: test compound 100 μM, treated from 1 hour before [3H]-glutamate (2 μM), 3 min uptake; COS-7 cells expressing rat GLT-1; percentage relative to solvent-treated group
T1 construct: expressed in transfected cells; host or cells: COS-7 cells
T1 sequence (P31596 whole entry): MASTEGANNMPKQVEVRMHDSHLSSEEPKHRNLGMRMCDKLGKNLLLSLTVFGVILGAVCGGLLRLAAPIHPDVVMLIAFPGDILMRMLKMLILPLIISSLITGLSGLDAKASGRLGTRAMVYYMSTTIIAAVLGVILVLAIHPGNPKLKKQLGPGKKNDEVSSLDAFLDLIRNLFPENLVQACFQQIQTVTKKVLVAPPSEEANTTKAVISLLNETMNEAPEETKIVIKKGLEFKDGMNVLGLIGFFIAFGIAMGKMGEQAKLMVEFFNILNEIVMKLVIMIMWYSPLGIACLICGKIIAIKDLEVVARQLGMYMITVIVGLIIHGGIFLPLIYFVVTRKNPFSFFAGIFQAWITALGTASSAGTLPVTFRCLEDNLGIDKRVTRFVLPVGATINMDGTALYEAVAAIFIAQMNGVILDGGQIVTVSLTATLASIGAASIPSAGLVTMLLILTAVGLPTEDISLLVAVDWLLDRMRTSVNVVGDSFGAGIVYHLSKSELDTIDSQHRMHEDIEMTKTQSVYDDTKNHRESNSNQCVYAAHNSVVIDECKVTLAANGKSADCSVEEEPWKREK
Description: Test Example 1 Activating Action for Glia Type Glutamic Acid Transporter (GLT-1)
Activating action for GLT-1 was evaluated by a test using COS-7 cells into which rat GLT-1 had been introduced. To COS-7 cells capable of expressing GLT-1 was added a [^3H]-glutamate-containing KRH solution (200 μl, final concentration: 2 μM). 3 minutes later, the ^3H amount was measured using a scintillation counter. A test compound (100 μM) was dissolved in the KRH solution and a treatment was conducted from 1 hour before the addition of [^3H]-glutamate. The action of the test compound for intake of glutamic acid was expressed as a percentage relative to the glutamic acid intake ability of solvent-treated group.
Glutamic acid intake (%)=[test compound (dpm)/control (dpm)]×100
This test was conducted based on a method by Shimada et al. [Eur. J. Pharmacol., 386, 263-270 ([…])].

ddy mice = assay: Toxicity test in ddy mice; assay type: in vivo; settings: 100 mg/kg (i. p.), 24 hours after administration
Description: Test Example 3 Toxicity Test
A test compound was administered into ddy mice to investigate its toxicity. The test compound was intraperitoneally administered in a dosage of 100 mg/kg; the mortality rate of the mice 24 hours after the administration was examined; and the toxicity of the test compound was evaluated from the mortality rate.

[1] = tested on: rat models of middle cerebral artery obstruction; assay: Action for cerebral infarct caused by middle cerebral artery obstruction in rat; assay type: in vivo; settings: male SD rats, left MCA obstruction, brain taken 24 hours after obstruction, TTC
Description: Test Example 2 Action for Cerebral Infarct Caused by Middle Cerebral Artery Obstruction in Rat
Preparation of rat models having middle cerebral artery obstruction was conducted according to a method of Tamura et al. [J. Cerebral Blood Flow and Metabolism, 53-60 (1981)]. Specifically, 9 to 10 week-old male SD strain rats were used and their left middle cerebral arteries were obstructed under anesthesia by […] halosen. The compound of Example 5 or 26 was used as a test compound. The compound of Example 5 was intravenously administered in a dosage of 10 mg/kg for 24 hours from right after the obstruction; and the compound of Example 26 was intraperitoneally administered in a dosage of 50 mg/kg right after the obstruction and 6 hours after the obstruction. The brain of each rat was taken out 24 hours after the obstruction of rat middle cerebral artery, was divided into 6 parts, and was dyed with TTC. The section of each dyed part was photographed, and the focus of cerebral infarct was measured using an image analyzer. The rats in control group were as well subjected to middle cerebral artery obstruction.

| SMILES | Glutamic acid intake (%) (rat GLT-1) | melting point | also measured |
| --- | --- | --- | --- |
| O=C(c1cccnc1)N1CCCC(c2ccccc2)=N1 [Example 1, 1-nicotinoyl-3-phenyl-1,4,5,6-tetrahydropyridazine] | 136% | – | – |
| O=C(c1cnccn1)N1CCCC(c2ccccc2)=N1 [Example 2, 1-(2-Pyrazinoyl)-3-phenyl-1,4,5,6-tetrahydropyridazine] | 126% | – | – |
| CS(=O)(=O)O.O=C(c1cccnc1)N1CCC(c2ccccc2)=N1 [Example 5, 1-nicotinoyl-3-phenyl-2-pyrazoline methanesulfonate] | 145% | – | Mortality rate (%) (ddy mice): 0%; Focus of cerebral infarct (mm^3) ([1]; 10 mg/kg intravenously for 24 hours from right after obstruction, control group 224.4 ± 71.5): 131.7 ± 51.6** mm^3 |
| O=C(c1cccnc1)N1CCC(c2ccc(F)cc2)=N1 [Example 7, 1-nicotinoyl-3-(4-fluorophenyl)-2-pyrazoline] | 143% | 128 to 130 °C | – |
| O=C(c1cccnc1)N1CCC(c2ccccc2F)=N1 [Example 8, 1-nicotinoyl-3-(2-fluorophenyl)-2-pyrazoline] | 134% | – | – |
| O=C(c1cccnc1)N1CCC(c2ccc(Br)cc2)=N1 [Example 9, 1-nicotinoyl-3-(4-bromophenyl)-2-pyrazoline] | 138% | – | – |
| O=C(c1cccnc1)N1CCC(c2ccc(Cl)cc2)=N1 [Example 10, 1-nicotinoyl-3-(4-chlorophenyl)-2-pyrazoline] | 135% | – | – |
| O=C(c1cccnc1)N1CCC(c2cccc(Cl)c2)=N1 [Example 11, 1-nicotinoyl-3-(3-chlorophenyl)-2-pyrazoline] | 140% | 124 to 126 °C | – |
| O=C(c1cccnc1)N1CCC(c2ccccc2Cl)=N1 [Example 12, 1-nicotinoyl-3-(2-chlorophenyl)-2-pyrazoline] | 134% | – | – |
| COc1ccc(C2=NN(C(=O)c3cccnc3)CC2)cc1 [Example 13, 1-nicotinoyl-3-(4-methoxyphenyl)-2-pyrazoline] | 129% | 132 to 134 °C | – |
| COc1ccccc1C1=NN(C(=O)c2cccnc2)CC1 [Example 14, 1-nicotinoyl-3-(2-methoxyphenyl)-2-pyrazoline] | 124% | 130 to 132 °C | – |
| COc1ccccc1C1=NN(C(=O)c2cccnc2)CC1C (stereo not shown) [Example 15, 1-nicotinoyl-3-(2-methoxyphenyl)-4-methyl-2-pyrazoline] | 134% | 124 to 125 °C | – |
| COc1ccc(C2=NN(C(=O)c3cccnc3)CC2)c(OC)c1 [Example 16, 1-nicotinoyl-3-(2,4-dimethoxyphenyl)-2-pyrazoline] | 126% | 112 to 113 °C | – |
| CCOc1ccc(C2=NN(C(=O)c3cccnc3)CC2)cc1 [Example 17, 1-nicotinoyl-3-(4-ethoxyphenyl)-2-pyrazoline] | 129% | 124 to 125 °C | – |
| CCOc1ccccc1C1=NN(C(=O)c2cccnc2)CC1 [Example 18, 1-nicotinoyl-3-(2-ethoxyphenyl)-2-pyrazoline] | – | 155 to 157 °C | – |
| Cc1ccc(C2=NN(C(=O)c3cccnc3)CC2)cc1 [Example 19, 1-nicotinoyl-3-(4-methylphenyl)-2-pyrazoline] | 131% | 100 to 102 °C | – |
| Cc1cccc(C2=NN(C(=O)c3cccnc3)CC2)c1 [Example 20, 1-nicotinoyl-3-(3-methylphenyl)-2-pyrazoline] | 134% | 99 to 100 °C | – |
| Cc1ccccc1C1=NN(C(=O)c2cccnc2)CC1 [Example 21, 1-nicotinoyl-3-(2-methylphenyl)-2-pyrazoline] | 129% | – | – |
| Cc1ccc(C2=NN(C(=O)c3cccnc3)CC2)c(C)c1 [Example 22, 1-nicotinoyl-3-(2,4-dimethylphenyl)-2-pyrazoline] | – | 102 to 104 °C | – |
| O=C(c1cccnc1)N1CCC(c2ccccc2C(F)(F)F)=N1 [Example 23, 1-nicotinoyl-3-(2-trifluoromethylphenyl)-2-pyrazoline] | 128% | – | – |
| O=C(c1cccnc1)N1CCC(c2ccc([N+](=O)[O-])cc2)=N1 [Example 24, 1-nicotinoyl-3-(4-nitrophenyl)-2-pyrazoline] | 130% | 175 to 177 °C | – |
| O=C(c1cccnc1)N1CCC(c2ccccc2[N+](=O)[O-])=N1 [Example 25, 1-nicotinoyl-3-(2-nitrophenyl)-2-pyrazoline] | – | 123 to 125 °C | – |
| O=C(c1cccnc1)N1CC2COc3ccccc3C2=N1 (stereo not shown) [Example 26, 2-nicotinoyl-3,3a-dihydro-2H,4H-[1]-benzopyrano[4,3-c]pyrazole] | 131% | – | Mortality rate (%) (ddy mice): 0%; Focus of cerebral infarct (mm^3) ([1]; 50 mg/kg intraperitoneally right after and 6 hours after obstruction, control group 188.0 ± 54.8): 135.9 ± 30.5* mm^3 |
| O=C(c1cccnc1)N1CC2COc3cc(Cl)ccc3C2=N1 (stereo not shown) [Example 31, 2-nicotinoyl-7-chloro-3,3a-dihydro-2H,4H-[1]-benzopyrano[4,3-c]pyrazole] | 125% | – | – |
| O=C(c1cnccn1)N1CC2CSc3ccccc3C2=N1 (stereo not shown) [Example 40, 2-(2-pyrazinoyl)-3,3a-dihydro-2H,4H-[1]-benzothiopyrano-[4,3-c]pyrazole] | – | 190 to 192 °C | – |
| O=C(c1cnccn1)N1CC2CS(=O)(=O)c3ccccc3C2=N1 (stereo not shown) [Example 42, 2-(2-pyrazinoyl)-3,3a-dihydro-2H,4H-[1]-benzothiopyrano-[4,3-c]pyrazole-S-dioxide] | 125% | – | – |
